Source: ChEMBL document CHEMBL5042473 (J Med Chem, 2022)

Experiments:
[1] = target: hERG (Homo sapiens, UniProt Q12809); experiment: Inhibition of hERG at 10 uM by fluorimetric analysis relative to control; type: toxicity
[2] = target: CYP2D6 (Homo sapiens, UniProt P10635); experiment: Inhibition of human recombinant CYP2D6 at 10 uM relative to control; type: ADME
[3] = tested on: Splenocyte; experiment: Cytotoxicity against Balb/c mouse splenocytes assessed as metabolic activity at 1 to 10 nM incubated for 24 hrs by MTT assay; type: toxicity, cell-based; settings: 0.01 µM, dose 1-10 nM
[4] = tested on: Blood; experiment: Reduction in LPS-stimulated TNF-alpha release in human whole blood incubated for 15 mins by ELISA based method; settings: 0.25 h
[5] = target: T1, CYP1A2 (Homo sapiens, UniProt P05177); experiment: Inhibition of human recombinant CYP1A2 at 10 uM relative to control; type: ADME
T1 sequence (P05177 whole entry): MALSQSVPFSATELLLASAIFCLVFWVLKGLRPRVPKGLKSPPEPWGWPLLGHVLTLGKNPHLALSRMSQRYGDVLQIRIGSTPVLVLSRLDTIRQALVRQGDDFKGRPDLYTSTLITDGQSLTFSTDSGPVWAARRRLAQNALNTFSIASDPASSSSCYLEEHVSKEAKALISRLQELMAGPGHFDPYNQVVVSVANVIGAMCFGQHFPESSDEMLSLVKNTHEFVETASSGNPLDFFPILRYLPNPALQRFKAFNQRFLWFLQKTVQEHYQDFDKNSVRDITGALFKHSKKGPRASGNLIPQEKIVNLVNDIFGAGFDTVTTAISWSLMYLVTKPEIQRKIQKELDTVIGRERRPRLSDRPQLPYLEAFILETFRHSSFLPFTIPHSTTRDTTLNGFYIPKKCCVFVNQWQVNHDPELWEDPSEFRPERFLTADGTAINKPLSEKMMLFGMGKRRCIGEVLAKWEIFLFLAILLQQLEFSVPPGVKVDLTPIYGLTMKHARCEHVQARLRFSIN

[6] = target: CYP2C19 (Homo sapiens, UniProt P33261); experiment: Inhibition of human recombinant CYP2C19 at 10 uM relative to control; type: ADME
[7] = target: CYP3A4 (Homo sapiens, UniProt P08684); experiment: Inhibition of human recombinant CYP3A4 at 10 uM relative to control; type: ADME
[8] = tested on: Blood; experiment: Antiinflammatory activity against LPS-stimulated C57BL/6 mouse whole blood assessed as reduction in TNF-alpha at 10 nM incubated for 24 hrs by ELISA based method; type: functional; settings: C57BL/6, Blood
[9] = Cytotoxicity against Balb/c mouse splenocytes assessed as metabolic activity at 100 nM incubated for 24 hrs by MTT assay relative to LPS-stimulated splenocytes; type: toxicity, cell-based, Splenocyte; settings: read-out: Activity
[10] = target: Mitogen-activated protein kinase 14 (Homo sapiens, UniProt Q16539); experiment: Inhibition of human p38 MAPK alpha incubated for 1 hr by photometric method
[11] = target: CYP2C9 (Homo sapiens, UniProt P11712); experiment: Inhibition of human recombinant CYP2C9 at 10 uM relative to control; type: ADME
[12] = tested on: Blood; experiment: Antiinflammatory activity against LPS-stimulated C57BL/6 mouse whole blood assessed as reduction in IL-6 incubated for 24 hrs by ELISA based method; type: functional; parameters: scale not given: the % may be the effect or the level left; settings: dose 1-100 nM, at 1 to 100 nM
[13] = tested on: Splenocyte; experiment: Antiinflammatory activity against LPS-stimulated Balb/c mouse splenocytes assessed as reduction in IL-6 at 10 nM incubated for 24 hrs by ELISA based method; type: functional; parameters: scale not given: the % may be the effect or the level left
[14] = Metabolic stability in human liver microsomes assessed as parent compound remaining incubated for 120 mins; type: ADME, Microsome; settings: read-out: Stability
[15] = tested on: Splenocyte; experiment: Antiinflammatory activity against LPS-stimulated Balb/c mouse splenocytes assessed as reduction in IL-6 at 1 nM incubated for 24 hrs by ELISA based method; type: functional; parameters: scale not given: the % may be the effect or the level left
[16] = Drug concentration in mouse C57BL/6 liver at 0.4 mg/kg,po measured at 4 hrs by LC-MS/MS analysis; type: ADME, organism-based; settings: C57BL/6, mouse, read-out: Drug uptake
[17] = Drug concentration in mouse C57BL/6 brain at 0.4 mg/kg,po measured at 4 hrs by LC-MS/MS analysis; type: ADME, organism-based; settings: C57BL/6, mouse, read-out: Drug uptake
[18] = Drug concentration in mouse C57BL/6 kidney at 0.4 mg/kg,po measured at 4 hrs by LC-MS/MS analysis; type: ADME, organism-based; settings: C57BL/6, mouse, read-out: Drug uptake
[19] = Drug concentration in mouse C57BL/6 brain at 0.4 mg/kg,po measured at 2 hrs by LC-MS/MS analysis; type: ADME, organism-based; settings: C57BL/6, mouse, read-out: Drug uptake
[20] = Drug concentration in mouse C57BL/6 heart at 0.4 mg/kg,po measured at 4 hrs by LC-MS/MS analysis; type: ADME, organism-based; settings: C57BL/6, mouse, read-out: Drug uptake
[21] = Ratio of drug concentration in mouse C57BL/6 brain to plasma at 0.4 mg/kg, po measured at 2 hrs by LC-MS/MS analysis; type: ADME, organism-based; settings: C57BL/6, mouse, brain and plasma
[22] = tested on: Blood; experiment: Antiinflammatory activity against LPS-stimulated C57BL/6 mouse whole blood assessed as reduction in TNF-alpha at 1 nM incubated for 24 hrs by ELISA based method; type: functional; parameters: scale not given: the % may be the effect or the level left
[23] = tested on: Splenocyte; experiment: Antiinflammatory activity against LPS-stimulated Balb/c mouse splenocytes assessed as reduction in IL-6 at 100 nM incubated for 24 hrs by ELISA based method; type: functional; parameters: scale not given: the % may be the effect or the level left

Chain of CYP2C19 (P33261 whole entry): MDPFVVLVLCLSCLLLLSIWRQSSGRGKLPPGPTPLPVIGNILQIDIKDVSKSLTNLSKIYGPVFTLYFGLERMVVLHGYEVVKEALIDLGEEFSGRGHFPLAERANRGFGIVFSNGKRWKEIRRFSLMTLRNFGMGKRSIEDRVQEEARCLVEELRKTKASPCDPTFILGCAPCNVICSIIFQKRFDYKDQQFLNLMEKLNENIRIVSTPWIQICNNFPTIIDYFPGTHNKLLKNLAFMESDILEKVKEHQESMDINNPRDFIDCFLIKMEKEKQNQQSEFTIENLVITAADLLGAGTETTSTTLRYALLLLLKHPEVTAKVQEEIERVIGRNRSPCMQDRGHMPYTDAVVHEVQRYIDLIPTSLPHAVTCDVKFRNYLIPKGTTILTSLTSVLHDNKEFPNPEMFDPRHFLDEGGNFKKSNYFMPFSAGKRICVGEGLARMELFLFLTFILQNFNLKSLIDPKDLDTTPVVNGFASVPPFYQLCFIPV
Chain of CYP3A4 (P08684 whole entry): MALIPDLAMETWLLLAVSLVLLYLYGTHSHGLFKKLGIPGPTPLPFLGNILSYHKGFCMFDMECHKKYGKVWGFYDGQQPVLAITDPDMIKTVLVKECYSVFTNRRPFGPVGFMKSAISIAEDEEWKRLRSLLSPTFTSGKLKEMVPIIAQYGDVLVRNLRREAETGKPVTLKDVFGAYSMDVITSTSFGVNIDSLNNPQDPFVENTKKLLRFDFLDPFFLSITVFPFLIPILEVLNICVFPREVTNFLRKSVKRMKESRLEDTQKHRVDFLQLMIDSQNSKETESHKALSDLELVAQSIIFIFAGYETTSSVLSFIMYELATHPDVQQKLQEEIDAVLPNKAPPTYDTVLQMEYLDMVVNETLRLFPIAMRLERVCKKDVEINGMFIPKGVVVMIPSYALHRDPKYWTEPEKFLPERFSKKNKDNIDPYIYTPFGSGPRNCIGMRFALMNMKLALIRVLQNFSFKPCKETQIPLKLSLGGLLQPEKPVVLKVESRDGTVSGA
Chain of CYP2C9 (P11712 whole entry): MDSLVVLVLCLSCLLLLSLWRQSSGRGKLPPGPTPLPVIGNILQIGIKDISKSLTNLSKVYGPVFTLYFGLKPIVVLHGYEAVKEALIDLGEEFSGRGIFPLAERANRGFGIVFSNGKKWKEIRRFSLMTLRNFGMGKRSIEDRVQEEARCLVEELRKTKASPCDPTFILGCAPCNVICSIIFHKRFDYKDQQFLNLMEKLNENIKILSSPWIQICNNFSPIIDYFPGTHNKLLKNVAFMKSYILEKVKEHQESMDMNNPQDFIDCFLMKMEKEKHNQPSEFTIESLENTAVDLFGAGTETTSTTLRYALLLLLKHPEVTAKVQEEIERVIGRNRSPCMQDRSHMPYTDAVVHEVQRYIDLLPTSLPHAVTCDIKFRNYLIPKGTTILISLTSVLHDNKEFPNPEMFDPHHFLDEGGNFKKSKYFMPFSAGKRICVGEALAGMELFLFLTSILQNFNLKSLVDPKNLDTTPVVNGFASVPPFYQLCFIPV
Chain of Mitogen-activated protein kinase 14 (Q16539 whole entry): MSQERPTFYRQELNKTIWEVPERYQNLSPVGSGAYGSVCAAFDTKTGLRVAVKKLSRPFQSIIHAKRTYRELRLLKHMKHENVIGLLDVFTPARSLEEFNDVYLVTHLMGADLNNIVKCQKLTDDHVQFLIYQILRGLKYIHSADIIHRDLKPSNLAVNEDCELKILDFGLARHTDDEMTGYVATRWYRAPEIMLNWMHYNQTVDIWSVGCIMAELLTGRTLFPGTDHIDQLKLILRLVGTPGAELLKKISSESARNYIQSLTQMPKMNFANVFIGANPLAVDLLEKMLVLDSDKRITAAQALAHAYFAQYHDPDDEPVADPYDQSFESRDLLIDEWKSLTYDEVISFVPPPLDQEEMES
Chain of hERG (Q12809 whole entry): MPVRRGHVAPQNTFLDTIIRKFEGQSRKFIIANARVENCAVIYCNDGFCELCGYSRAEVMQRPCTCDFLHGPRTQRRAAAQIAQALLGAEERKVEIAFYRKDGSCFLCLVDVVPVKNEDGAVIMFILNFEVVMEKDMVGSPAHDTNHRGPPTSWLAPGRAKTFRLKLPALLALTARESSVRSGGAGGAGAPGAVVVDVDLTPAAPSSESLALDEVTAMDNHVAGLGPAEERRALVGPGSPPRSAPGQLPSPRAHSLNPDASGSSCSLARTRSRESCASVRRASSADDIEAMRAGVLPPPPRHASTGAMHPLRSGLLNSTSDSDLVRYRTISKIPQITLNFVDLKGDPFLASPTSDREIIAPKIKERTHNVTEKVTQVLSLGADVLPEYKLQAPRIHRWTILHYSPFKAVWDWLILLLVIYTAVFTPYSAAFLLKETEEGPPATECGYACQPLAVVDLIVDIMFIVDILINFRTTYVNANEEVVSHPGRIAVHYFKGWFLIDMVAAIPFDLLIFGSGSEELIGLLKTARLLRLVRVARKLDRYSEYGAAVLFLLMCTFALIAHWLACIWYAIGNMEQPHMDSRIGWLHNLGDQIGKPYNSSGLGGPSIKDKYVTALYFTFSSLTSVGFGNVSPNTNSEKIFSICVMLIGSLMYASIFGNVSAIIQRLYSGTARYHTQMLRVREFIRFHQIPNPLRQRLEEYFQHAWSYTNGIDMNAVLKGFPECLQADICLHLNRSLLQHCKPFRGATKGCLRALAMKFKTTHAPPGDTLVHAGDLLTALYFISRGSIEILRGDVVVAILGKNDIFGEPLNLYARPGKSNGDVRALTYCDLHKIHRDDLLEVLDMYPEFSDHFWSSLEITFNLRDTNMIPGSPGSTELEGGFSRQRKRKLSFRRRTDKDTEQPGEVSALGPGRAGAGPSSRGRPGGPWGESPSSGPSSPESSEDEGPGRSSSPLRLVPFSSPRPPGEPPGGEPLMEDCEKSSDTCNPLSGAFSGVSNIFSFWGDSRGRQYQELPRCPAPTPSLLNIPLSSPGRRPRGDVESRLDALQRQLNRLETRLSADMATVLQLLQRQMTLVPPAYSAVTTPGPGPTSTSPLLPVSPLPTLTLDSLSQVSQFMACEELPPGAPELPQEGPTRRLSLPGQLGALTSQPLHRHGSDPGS
Chain of CYP2D6 (P10635 whole entry): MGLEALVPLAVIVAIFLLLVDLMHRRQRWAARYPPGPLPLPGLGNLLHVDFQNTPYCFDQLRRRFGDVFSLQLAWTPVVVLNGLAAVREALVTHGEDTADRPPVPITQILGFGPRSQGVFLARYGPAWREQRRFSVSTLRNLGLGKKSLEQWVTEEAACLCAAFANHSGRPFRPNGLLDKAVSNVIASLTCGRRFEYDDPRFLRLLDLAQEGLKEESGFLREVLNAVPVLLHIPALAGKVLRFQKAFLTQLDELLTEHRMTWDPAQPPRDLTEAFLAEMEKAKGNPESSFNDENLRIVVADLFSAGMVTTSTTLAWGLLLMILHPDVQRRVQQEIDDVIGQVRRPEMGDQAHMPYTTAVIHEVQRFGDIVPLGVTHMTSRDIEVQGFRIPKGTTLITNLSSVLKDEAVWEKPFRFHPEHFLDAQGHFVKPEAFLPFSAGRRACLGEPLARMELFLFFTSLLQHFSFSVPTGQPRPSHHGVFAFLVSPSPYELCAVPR

SMILES	inhibition at 10 µM [1] [%]	inhibition at 10 µM [2] [%]	Activity [3]	inhibition at 10 µM [5] [%]	inhibition at 10 µM [6] [%]	inhibition at 10 µM [7] [%]	viability at 24 h, 0.1 µM [9] [%]	IC50 [10] [nM]	inhibition at 10 µM [11] [%]	other results
COC(=O)CCCNC(=O)c1ccc2c(c1)C(=O)c1ccc(Nc3ccc(F)cc3F)cc1CC2	49.7	3	Non-Toxic	11.6	60.4	34.9	66	3.4	68.4	IC50 [4]: 64 nM; inhibition at 0.01 µM [8]: 50%; Activity [12]: 64%
Nc1ccccc1Nc1ccc2c(c1)CCc1ccc(C(=O)NCCC(=O)O)cc1C2=O	22.5	11.4	Non-Toxic	28.1	21.8	4.1	66	0.98	13.1	Activity [13]: 118%; remaining at 2 h [14]: 99%; Activity [15]: 138%; concentration at 4 h [16]: 330 nM; concentration at 4 h [17]: 540 nM; concentration at 4 h [18]: 380 nM; concentration at 2 h [19]: 590 nM; concentration at 4 h [20]: 120 nM; Kp at 2 h [21]: 4.7; Activity [22]: 5%; Activity [23]: 29%
